Data taken from patent US20260286302A1, “METHODS FOR PRODUCING A SUPER CENTRAL MEMORY CD8 T CELL SUBTYPE BY POLY(ADP-RIBOSE) POLYMERASE (PARP) INHIBITION AND USES THEREOF” (Georgetown University, priority 2023, published 2026).

Key:
pMel-1 CD8 T cells = format: cell-based; details: gp100-activated; for percentage of CD44hiCD62Lhi TCM CD8 T cell population: 48 h of treatment, for PARPi concentration-dependent
Method: For ACT experiments, CD8+ T cells from pMel-1 mice were activated with gp100 peptide with and without PARPi for 48 h. Based on their CD44 and CD62L expression, cells were sorted by FACS and transferred into 9-day-old B16F10 melanoma-bearing mice tumor-bearing mice (1×10^6 cells per mouse). Tumor growth and survival of mice were monitored.
A total of 0.1-0.2×10^6 cells per sample were stained for Live/Dead staining followed by fixation and permeabilization. […] CD8^+ T cells from tumor samples were stained similarly. Data acquisition was performed on a BD LSR II flow cytometer using the software FACS Diva v.9.0. Results were analyzed using FlowJo software (TreeStar). […]

human CD8 T cells = test: In vitro-activated human CD8+ T cells, memory characteristics; format: cell-based; details: anti-CD3/CD28 coupled beads for 72 h
Method: For evaluation of memory characteristics in human CD8+ T cells, naive CD8+ T cells were activated in the presence or absence of PARPi, by Dynabeads™ Human T-Activator CD3/CD28 (Thermo Fisher #11131), […]. Post-activation cells were gated upon CD8^+ T cell population and various characteristics were investigated as described in the Examples below.
A total of 0.1-0.2×10^6 cells per sample were stained for Live/Dead staining followed by fixation and permeabilization. For IFNγ and granzyme B (Gzm B) staining, BD Cytofix/Cytoperm (catalog no. 51-2090KZ) and BD Perm/Wash (catalog no. 51-2091KZ) buffer set were used according to the manufacturer's instructions (BD Pharmingen). CD8^+ T cells from tumor samples were stained similarly. Data acquisition was performed on a BD LSR II flow cytometer using the software FACS Diva v.9.0. Results were analyzed using FlowJo software (TreeStar). MitoFM, a green-fluorescent mitochondrial stain, which localizes to mitochondria, was used as described previously (Sukumar et al., Cell Metab 23 (1): 63-76, 2016).
To this end, human naïve CD8 T cells were activated with anti-CD3/CD28 coupled beads for 72 h.

Structure (SMILES)	percentage of CD44hiCD62Lhi TCM CD8 T cell population (pMel-1 CD8 T cells)	expression of IFNγ and Gzm B in CD44hiCD62Lhi CD8 T cells (pMel-1 CD8 T cells; 48 h)	IFNγ expression (human CD8 T cells)	number of CD45ROhiCCR7hi cells (human CD8 T cells)	number of CD45ROhiCD62Lhi cells (human CD8 T cells)
NC(=O)c1cccc2cn(-c3ccc([C@@H]4CCCNC4)cc3)nc12 [Niraparib]	significantly increased				
Cn1ncnc1[C@H]1c2n[nH]c(=O)c3cc(F)cc(c23)N[C@@H]1c1ccc(F)cc1 [Talazoparib]	significantly increased	significantly increased	significant increase	significant increase	significant increase
